Test results: PubChem BioAssay AID1259411 (Chemical Carcinogenesis Research Information System (CCRIS), 2018)
Calls of active or inactive are those of the source. The rule behind the calls is not given here.

System: rodent carcinogenicity bioassays, tumor incidence
Assay: CCRIS carcinogenicity studies
In short: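 NCI-built, expert-reviewed records of carcinogenicity and related test outcomes (mutagenicity, tumor promotion/inhibition) compiled from published and report sources, historical span 1985-2011, not updated.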

CCCCN(N=O)C(CCC)OO (stereo not given) was tested, and the carcinogen call (Species: RAT, Strain/Sex: F344/MALE, Route: SUBCUTANEOUS, Dose: 38 UMOL/KG IN OLIVE OIL 1/WK FOR 10 WK, Tumor Site: Type of Lesion: INJECTION SITE: MALIGNANT FIBROUS HISTIOCYTOMA) was “active; positive”.

For COC(N)=O, the carcinogen call (Species: MOUSE, Strain/Sex: B6C3F1/FEMALE, Route: GAVAGE, Dose: 0, 500, 1000 MG/KG IN DISTILLED WATER 5D/WK FOR 103 WK (STUDY DURATION: 105 WK), 1000 MG/KG IN DISTILLED WATER 5D/WK FOR, Dose: 0, 500, 1000 MG/KG IN DISTILLED WATER 5D/WK FOR 103 WK (STUDY DURATION: 105 WK), 1000 MG/KG IN DISTILLED WATER 5D/WK FOR) was “inactive; negative”, the carcinogen call (Species: MOUSE, Strain/Sex: B6C3F1/MALE, Route: GAVAGE, Dose: 0, 500, 1000 MG/KG IN DISTILLED WATER 5D/WK FOR 103 WK (STUDY DURATION: 105 WK);1000 MG/KG IN DISTILLED WATER 5D/WK FOR, Dose: 0, 500, 1000 MG/KG IN DISTILLED WATER 5D/WK FOR 103 WK (STUDY DURATION: 105 WK);1000 MG/KG IN DISTILLED WATER 5D/WK FOR) was “inactive; negative” and the carcinogen call (Species: RAT, Strain/Sex: F344/FEMALE, Route: GAVAGE, Dose: 0, 100, 200 MG/KG IN DISTILLED WATER 5D/WK FOR 103 WK (STUDY DURATION: 105 WK), 400 MG/KG IN DISTILLED WATER 5D/WK FOR 6, Dose: 0, 100, 200 MG/KG IN DISTILLED WATER 5D/WK FOR 103 WK (STUDY DURATION: 105 WK), 400 MG/KG IN DISTILLED WATER 5D/WK FOR 6, Tumor Site: Type of Lesion: LIVER: NEOPLASTIC NODULE, LIVER: NEOPLASTIC NODULE OR HEPATOCELLULAR CARCINOMA, LIVER: HEPATOCELLULAR CARCINOMA, Tumor Site: Type of Lesion: LIVER: NEOPLASTIC NODULE, LIVER: NEOPLASTIC NODULE OR HEPATOCELLULAR CARCINOMA, LIVER: HEPATOCELLULAR CARCINOMA) was “active; positive”. The carcinogen call (Species: RAT, Strain/Sex: F344/MALE, Route: GAVAGE, Dose: 0, 100, 200 MG/KG IN DISTILLED WATER 5D/WK FOR 103 WK (STUDY DURATION: 105 WK), 400 MG/KG IN DISTILLED WATER 5D/WK FOR 6, Dose: 0, 100, 200 MG/KG IN DISTILLED WATER 5D/WK FOR 103 WK (STUDY DURATION: 105 WK), 400 MG/KG IN DISTILLED WATER 5D/WK FOR 6, Tumor Site: Type of Lesion: LIVER: NEOPLASTIC NODULES, LIVER: HEPATOCELLULAR CARCINOMA) was “active; positive”.

For O=c1[nH]c(=O)n(O)c2nc[nH]c12, the carcinogen call (Species: RAT, Strain/Sex: SPRAGUE-DAWLEY/FEMALE, Route: SUBCUTANEOUS, Dose: 3-7 MG/SUSPENDED IN CARBOXYMETHYLCELLULOSE IN SALINE 1/WK FOR 22-26 WK, Tumor Site: Type of Lesion: INJECTION SITE, LIVER: HYPERPLASTIC NODULE OR HEPATOMA) was “active; positive”, the carcinogen call (Species: RAT, Strain/Sex: SPRAGUE-DAWLEY/MALE, Route: SUBCUTANEOUS, Dose: 0, 0.1, 1.0 MG IN CARBOXYMETHYLCELLULOSE 3/WK FOR 8 WK, Dose: 0, 0.1, 1.0 MG IN CARBOXYMETHYLCELLULOSE 3/WK FOR 8 WK, Tumor Site: Type of Lesion: INJECTION SITE: SARCOMA, FIBROMA) was “active; positive” and the carcinogen call (Species: RAT, Strain/Sex: WISTAR/MALE, FEMALE, Route: SUBCUTANEOUS, Dose: 3-7 MG/SUSPENDED IN CARBOXYMETHYLCELLULOSE IN SALINE 1/WK FOR 22-26 WK, Tumor Site: Type of Lesion: INJECTION SITE, LIVER: HYPERPLASTIC NODULE OR HEPATOMA) was “active; positive”. For the same compound, the carcinogen call (Species: RAT, Strain/Sex: WISTAR/MALE, Route: ORAL, Dose: 7 MG IN CARBOXYMETHYLCELLULOSE IN SALINE 1/WK FOR 22 WK, Tumor Site: Type of Lesion: LIVER) was “active; positive” and the carcinogen call (Species: RAT, Strain/Sex: WISTAR/MALE, Route: SUBCUTANEOUS, Dose: 0, 0.1, 1.0 MG IN CARBOXYMETHYLCELLULOSE 3/WK FOR 8 WK, Dose: 0, 0.1, 1.0 MG IN CARBOXYMETHYLCELLULOSE 3/WK FOR 8 WK, Tumor Site: Type of Lesion: INJECTION SITE: SARCOMA, FIBROMA) was “active; positive”.

In the case of CC(CN1c2ccccc2Sc2ccccc21)N(C)C (stereo not given), the carcinogen call (Species: MOUSE, Strain/Sex: B6C3F1/FEMALE, Route: GAVAGE, Dose: 0, 3.75, 7.5, 15 MG/KG IN WATER 1/D 5 D/WK FOR 103 WK (STUDY DURATION: 106 WK), Dose: 0, 3.75, 7.5, 15 MG/KG IN WATER 1/D 5 D/WK FOR 103 WK (STUDY DURATION: 106 WK)) is reported as “inactive; negative”, the carcinogen call (Species: MOUSE, Strain/Sex: B6C3F1/MALE, Route: GAVAGE, Dose: 0, 11.25, 22.5, 45 MG/KG IN WATER 1/D 5 D/WK FOR 103 WK (STUDY DURATION: 106 WK), Dose: 0, 11.25, 22.5, 45 MG/KG IN WATER 1/D 5 D/WK FOR 103 WK (STUDY DURATION: 106 WK)) is reported as “inactive; negative” and the carcinogen call (Species: RAT, Strain/Sex: F344/FEMALE, Route: GAVAGE, Dose: 0, 8.3, 16.6, 33.3 MG/KG IN WATER 1/D 5 D/WK FOR 103 WK (STUDY DURATION: 106 WK), Dose: 0, 8.3, 16.6, 33.3 MG/KG IN WATER 1/D 5 D/WK FOR 103 WK (STUDY DURATION: 106 WK)) is reported as “inactive; negative”. The carcinogen call (Species: RAT, Strain/Sex: F344/MALE, Route: GAVAGE, Dose: 0, 8.3, 16.6, 33.3 MG/KG IN WATER 1/D 5 D/WK FOR 103 WK (STUDY DURATION: 106 WK), Dose: 0, 8.3, 16.6, 33.3 MG/KG IN WATER 1/D 5 D/WK FOR 103 WK (STUDY DURATION: 106 WK)) was “inactive; negative”.

With O=C1OC2(c3ccccc31)c1cc(Br)c(O)c(Br)c1Oc1c2cc(Br)c(O)c1Br the carcinogen call (Species: MOUSE, Strain/Sex: ICR/FEMALE, Route: DERMAL, Dose: 0, 1 MG IN 0.1 ML DISTILLED WATER 2/WK FOR A MEAN TOTAL DOSE OF 140.1 MG (STUDY DURATION: 18 MO)) was “inactive; negative” and the carcinogen call (Species: MOUSE, Strain/Sex: ICR/MALE, Route: DERMAL, Dose: 0, 1 MG IN 0.1 ML DISTILLED WATER 2/WK FOR A MEAN TOTAL DOSE OF 140.1 MG (STUDY DURATION: 18 MO)) was “inactive; negative”.

For ClC1=C(Cl)[C@]2(Cl)C3C(Cl)C(Cl)CC3[C@@]1(Cl)C2(Cl)Cl (stereo not given in full), the carcinogen call (Species: MOUSE, Strain/Sex: B6C3F1/FEMALE, Route: ORAL, Dose: 0, 30.1, 63.8 PPM IN DIET, TWA, Dose: 0, 30.1, 63.8 PPM IN DIET, TWA, Tumor Site: Type of Lesion: LIVER: HEPATOCELLULAR CARCINOMA) was “active; positive”, the carcinogen call (Species: MOUSE, Strain/Sex: B6C3F1/MALE, Route: ORAL, Dose: 0, 29.9, 56.2 PPM IN DIET, TWA, Dose: 0, 29.9, 56.2 PPM IN DIET, TWA, Tumor Site: Type of Lesion: LIVER: HEPATOCELLULAR CARCINOMA) was “active; positive” and the carcinogen call (Species: MOUSE, Strain/Sex: B6C3F1/MALE, Route: ORAL, Dose: 0, 55 PPM IN DIET BEGINNING AT 63 D OF AGE, AT 8 MO OF AGE DOSE INCREASED TO 60 PPM AND CONTINUED UNTIL 491 D OF AGE (ST, Tumor Site: Type of Lesion: LIVER: HEPATOCELLULAR ADENOMA, HEPATOCELLULAR CARCINOMA) was “active; positive”. For the same compound, the carcinogen call (Species: MOUSE, Strain/Sex: B6C3F1/MALE, Route: ORAL, Dose: 0, 55 PPM IN DIET BEGINNING AT 63 D OF AGE, AT 8 MO OF AGE DOSE WAS INCREASED TO 60 PPM FOR DURATION OF STUDY (STUDY DUR, Tumor Site: Type of Lesion: LIVER: HEPATOCELLULAR ADENOMA, HEPATOCELLULAR CARCINOMA) was “active; positive”, the carcinogen call (Species: MOUSE, Strain/Sex: B6D2F1/MALE, Route: ORAL, Dose: 0, 55 PPM IN DIET BEGINNING AT 63 D OF AGE, AT 8 MO OF AGE DOSE INCREASED TO 60 PPM AND CONTINUED UNTIL 491 D OF AGE (ST, Tumor Site: Type of Lesion: LIVER: HEPATOCELLULAR ADENOMA, HEPATOCELLULAR CARCINOMA) was “active; positive” and the carcinogen call (Species: MOUSE, Strain/Sex: B6D2F1/MALE, Route: ORAL, Dose: 0, 55 PPM IN DIET BEGINNING AT 63 D OF AGE, AT 8 MO OF AGE DOSE WAS INCREASED TO 60 PPM FOR DURATION OF STUDY (STUDY DUR, Tumor Site: Type of Lesion: LIVER: HEPATOCELLULAR ADENOMA, HEPATOCELLULAR CARCINOMA) was “active; positive”. The carcinogen call (Species: MOUSE, Strain/Sex: CD-1/MALE,FEMALE, Route: DIET, Dose: 0, 5, 25, 50 MG/KG FOR 18 MO, Tumor Site: Type of Lesion: LIVER: HEPATOCELLULAR CARCINOMA) was “active; positive”, the carcinogen call (Species: RAT, Strain/Sex: OSBORNE-MENDEL/FEMALE, Route: ORAL, Dose: 0, 120.8, 241.5PPM IN DIET, TWA, Dose: 0, 120.8, 241.5PPM IN DIET, TWA) was “inactive; negative” and the carcinogen call (Species: RAT, Strain/Sex: OSBORNE-MENDEL/MALE, Route: ORAL, Dose: 0, 203.5, 407.0PPM IN DIET, TWA, Dose: 0, 203.5, 407.0PPM IN DIET, TWA) was “inactive; negative”.
